Experimental data taken from US8067422B2, “Crystal form of phenylamino pyrimidine derivatives” (Natco Pharma Limited, priority 2008, dated 2011).

Columns and labels:
[1] = system: 5310 glioma cells; assay: In vitro angiogenic assay, 5310 conditioned media on human dermal endothelial cells; assay type: cell-based; settings: 5310 cells
Procedure: (§1) The in vitro angiogenesis of 4910, 5310 and U87 glioma cells and MDAMB231 and ZR71 breast cancer cells in the presence of specified concentrations of compounds were determined as follows, cells (2×10^4/well) were seeded in 8-well chamber slides and were treated with various concentrations of test compounds. After a 24 h incubation period, the conditioned media was removed and added to a 4×10^4 human dermal endothelial cell (monolayer in 8-well chamber slides) and the human dermal endothelial cells were allowed to grow for 72 h. Cells were then fixed in 3.7% formaldehyde and stained with H&E and photographed.

[2] = system: AKT, ERK and Pi3k in U87 glioma cells; assay: Western blot analysis, U87; assay type: cell-based
Procedure: (§2) Western blot analysis of 4910, 5310 and U87 glioma cells and MDAMB231 and ZR71 breast cancer cells in the presence of specified concentrations of compounds were assessed as per standard protocols. Cells were treated with AN019, AN024 or Temozolomide at the specified concentrations. 24 h after treatment, cells were collected and cell lysates extracted. Equal quantities of proteins were fractionated by SDS-PAGE. The fractionated proteins were blotted on to nylon membranes and immunoprobed for AKT, ERK and Pi3k. Breast cancer cell protein isolates were additionally immunoprobed for EGFR, ErbB1, ErbB2 and ErbB3.

[3] = system: U87 glioma cells; assay: Matrigel invasion assay (modified Boyden chamber), U87; assay type: cell-based; settings: U87
Procedure: (§3) The in vitro invasiveness of 4910, 5310 and U87 glioma cells and MDAMB231 and ZR71 breast cancer cells in the presence of specified concentrations of compounds were assessed using a modified Boyden chamber assay. Cells were treated with these compounds for 48 h. 1×10^6 cells were suspended in 600 μl of serum-free medium supplemented with 0.2% BSA and placed in the upper compartment of the transwell chambers (Corning Costar Fischer Scientific Cat #07-200-158, Pittsburgh Pa.) coated with Matrigel (0.7 mg/ml). The lower compartment of the chamber was filled with 200 μl of serum medium and the cells were allowed to migrate for 24 h. After incubation, the cells were fixed and stained with Hema-3 and quantified as previously described (Mohanam et al. 1993). The migrated cells were imaged microscopically to determine the reduction in invasiveness induced by the compounds of this invention.

[4] = system: AKT, ERK and Pi3k in 4910 glioma cells; assay: Western blot analysis, 4910; assay type: cell-based, human
Procedure: as §2

[5] = system: 4910 glioma cells; assay: In vitro angiogenic assay, 4910 conditioned media on human dermal endothelial cells; assay type: cell-based; settings: 4910 cells
Procedure: as §1

[6] = system: Baf3 murine leukemia cells (T315I); assay: Blast cell count in nude mice implanted with Baf3 T315I cells; assay type: in vivo; settings: Baf3T315I; Imatinib 10 mg/kg, AN019 20 mg/kg, AN024 20 mg/kg, oral gavage or ip; day 42
Source text: (§4) Blood smears were obtained via the tail vein or via the femoral vein every 6th day and blast cells counted and graphically represented.
(§5) Abdominal swelling and decrease in activity was monitored daily, blood smear taken via the tail vein or the femoral vein every 6th day and H&E stained as per standard protocols. 42 days after implantation, mice were sacrificed and spleens harvested.
(§6) Nude mice were intraperitoneally implanted with Baf3 mutant cells (wt, T315I, M351T or E255K). […] Blood was drawn from the femoral vein or tail vein every 6th day and blast cell count determined and graphically represented.

[7] = system: 5310 glioma cells; assay: Matrigel invasion assay (modified Boyden chamber), 5310; assay type: cell-based; settings: 5310
Procedure: as §3

[8] = system: MDAMB231 breast cancer cells; assay: In vitro angiogenic assay, MDA-MB-231 conditioned media on human dermal endothelial cells; assay type: cell-based; settings: MDA-MB-231 cells
Procedure: as §1

[9] = system: 4910 human glioma xenograft cells; assay: Glioma radiation study, nude mice intracranially implanted with 4910 cells; assay type: in vivo
Procedure: Nude mice were intracranially implanted with 4910 human glioma xenograft cells (1×10^6 cells). Ten days after implantation mice were treated with AN019, AN024 or temozolomide with or without radiation (5 Gy/week). The experiment was terminated at day 40 post implantation.

[10] = system: ZR71 breast cancer cells; assay: In vitro angiogenic assay, ZR-71 conditioned media on human dermal endothelial cells; assay type: cell-based; settings: ZR-71 cells; radiation not distinguished
Procedure: as §1

[11] = system: K562; assay: ED50 (po) in leukemic mice (K562); settings: po, mice
[12] = system: U87 glioma cells; assay: In vitro angiogenic assay, U87 conditioned media on human dermal endothelial cells; assay type: cell-based
Procedure: as §1

[13] = system: 4910 glioma cells; assay: Matrigel invasion assay (modified Boyden chamber), 4910; assay type: cell-based, human; settings: 4910
Procedure: as §3

[14] = system: Baf3 murine leukemia cells (M351T); assay: Blast cell count in nude mice implanted with Baf3 M351T cells; assay type: in vivo; settings: Baf3M351T; Imatinib 10 mg/kg, AN019 20 mg/kg, AN024 20 mg/kg, oral gavage or ip; day 42
Source text: as §4, §5, §6

[15] = system: AKT, ERK and Pi3k in ZR71 breast cancer cells; assay: Western blot analysis, ZR71; assay type: cell-based
Procedure: as §2

[16] = system: MDAMB231 breast cancer cells; assay: Matrigel invasion assay (modified Boyden chamber), MDA-MB-231; assay type: cell-based; settings: MDA-MB-231
Procedure: as §3

[17] = not given; remark: listed apart in the source
[18] = system: K562 luciferase expressing cells; assay: Leukemic survival study in nude mice implanted with K562 luciferase expressing cells; assay type: in vivo
Source text: K562 luciferase expressing cells were implanted intraperitoneally into nude mice; the mice were scanned using the xenogeny IVIS image station after ip injections of luciferin does determine implantations. Drug treatment was started as in previous studies day 15 after implantation. The animals were given treatment till day 42, after which drug treatment was stopped and survival of the animals determined as per the animal care regulations. […] Drug treatment was withdrawn on day 42 post implantation and survival of animals determined.

[19] = system: ZR71 breast cancer cells; assay: Matrigel invasion assay (modified Boyden chamber), ZR-71; assay type: cell-based; settings: ZR-71
Procedure: as §3

[20] = system: Baf3 murine leukemia cells (E255K); assay: Blast cell count in nude mice implanted with Baf3 E255K cells; assay type: in vivo; settings: Baf3 E225K (E255K); Imatinib 10 mg/kg, AN019 20 mg/kg, AN024 20 mg/kg, oral gavage or ip; day 42
Source text: as §4, §5, §6

## Cc1ccc(NC(=O)c2cccc(S(=O)(=O)C(F)(F)F)c2)cc1Nc1nccc(-c2cccnc2)n1 [AN024]
[1]; after radiation
  Inhibition of angiogenesis: angiogenesis further inhibited
[1]; control conditions (without radiation)
  Inhibition of angiogenesis: inhibition of angiogenesis
[2]; U87, after radiation
  ERK levels (Western blot): decrease was enhanced
[2]; U87, without radiation
  ERK levels (Western blot): slight decrease in ERK levels
[3]
  ±Change in invasion after radiation: −24%
[4]; 4910, after radiation
  AKT levels (Western blot): decrease in AKT levels was enhanced
[4]; 4910, without radiation
  AKT levels (Western blot): decrease in AKT levels
[5]; after radiation
  Inhibition of angiogenesis: significant inhibition of angiogenesis
[5]; without radiation
  Inhibition of angiogenesis: significant inhibition of angiogenesis
other
  LD50 (po) Mice: 1440 mg/kg
[6]
  Blast cell count in blood smears: significant decrease in blast cell count
[7]
  ±Change in invasion after radiation: +5%
[8]; after radiation
  Inhibition of angiogenesis: only a slight inhibition
[8]; control condition (without radiation)
  Inhibition of angiogenesis: only a slight inhibition
[9]; of 10 animals, with radiation (5 Gy/week), day 40 post implantation
  Animals cured / no observable intracranial tumor: 7 animals
[9]; of 10 animals, without radiation, day 40 post implantation
  Animals cured / complete absence of intracranial tumours: 3 animals
[9]; with radiation (5 Gy/week)
  Intracranial tumour size and appearance: well defined surgically respectable tumours
[9]; without radiation
  Intracranial tumour size and appearance: tumours were well defined and not showing diffuse edges
[10]
  Inhibition of angiogenesis: complete inhibition of angiogenesis
[11]
  ED50 (po) Mice: 10 mg/kg
[12]; after radiation
  Inhibition of angiogenesis: increase in inhibition
[12]; without radiation
  Inhibition of angiogenesis: significant retardation in angiogenesis
[13]
  ±Change in invasion after radiation: −17%
[14]
  Blast cell count in blood smears: significant decrease in blast cell count
[15]; ZR71, after radiation
  AKT levels (Western blot): decrease in AKT expression
[15]; ZR71, unirradiated
  AKT levels (Western blot): did not show any significant change
[15]; ZR71, with radiation
  PI3k levels (Western blot): decrease in PI3k levels
[16]
  ±Change in invasion after radiation: +4%
[17]
  MTD Mice: 500 mg/kg
[18]; drug treatment withdrawn on day 42
  Blast cell count from blood smears, effectiveness after withdrawal of drug treatment: showed effectiveness after withdrawal of drug treatment
[18]; of 10 animals, drug withdrawn day 42, AN024 on day 55
  Animals showing no signs of leukemia / complete absence of leukemic symptoms: 8 animals
[18]; treatment day 15 to day 42, then withdrawn, 10 animals
  Mortality: mortality on day 38
[19]
  ±Change in invasion after radiation: −3%
[20]
  Blast cell count in blood smears: significant decrease in blast cell count
